{
  "source": "paper PMC10778198",
  "about": "“First-in-Human Dose-Escalation Study of the Novel Oral Depsipeptide Class I-Targeting HDAC Inhibitor Bocodepsin (OKI-179) in Patients with Advanced Solid Tumors” (Cancers, 2023)",
  "key": {"[1]": {"tested_on": "histone acetylation (Ac-H3K27) in circulating T cells", "experiment": "histone acetylation in circulating T cells (PBMC flow cytometry)", "format": "in vivo, human", "experimental": "Blood samples for acetylated (Ac)-H3K27, Ac-H3K9, and Ac-lysine levels in peripheral blood mononuclear cells (PBMCs) were collected in cycle 1. Samples were collected immediately prior to dosing and at 2, 8, and 24 h post-dosing on days 1 and 15. Blood samples were processed within 3 h of collection, and isolated PBMCs were washed and resuspended in cell cell-freezing medium. Cells were stored at ≤−70 °C prior to shipment to the University of Texas at Austin Dell Medical School (UTDMS) for analysis. Briefly, patient PBMCs were thawed at 37 °C for 5 min, washed with flow wash buffer containing PBS/2% FBS/5 mM EDTA, and stained for 30 min on ice with the following: fixable viability dye (BioLegend 423106; Zombie NIR^TM, San Diego, CA, USA), CD3 (Biolegend; Clone OKT3), CD4 (BioLegend; Clone SK3), and CD8 (Biolegend; Clone RPA-T8). All samples were washed twice before being fixed and permeabilized using a BD Biosciences (Hunt Valley, MD, USA) Cytofix/Cytoperm™ kit (RRID: AB_2869008) according to the manufacturer’s protocol and stained for 30 min for intracellular acetylation markers: Ac-H3K27 (Cell Signaling Technology; Clone D5E4), Ac-H3K9 (Cell Signaling Technology, Danvers, MA, USA; Clone CFB11), and total Ac-lysine (BioLegend; Clone 15G10). All cells were analyzed on a Cytek Aurora (5 L 16UV-16V-14B-10YG-8R). Spectral unmixing was performed based on fluorophore-specific single-color cells and compensation bead (ThermoFisher 01-2222-41, Waltham, MA, USA) controls using SpectroFlo© software (v3). All post-acquisition analyses were performed using FlowJo software (v10.3). Results are shown as fold-changes from pre-dose values for each patient and day.\nDescriptive statistics were used for baseline characteristics, safety assessments, pharmacokinetic variables, exploratory assessments, and efficacy analysis, including the duration of response and time to progression. Tables were used to summarize the data across the cohort of patients and various dosing groups. Geometric means were used to calculate plasma concentration-time profiles. […]"}, "[2]": {"experiment": "plasma pharmacokinetics by LC-MS/MS in patients", "format": "in vivo, human", "conditions": "human, plasma, oral, 300 mg, plasma; for AUC(0-t): read-out: AUClast of OKI-179; for Cmax: read-out: Cmax of OKI-179; for Tmax: read-out: Tmax of OKI-179", "experimental": "Blood samples were collected immediately prior to the first dose on cycle 1 and day 1, and then at 0.25, 0.5, 1, 2, 4, 8, and 24 h after taking OKI-179 on days 1 and 15. Additional samples were collected pre-dose and 2 and 4 h after OKI-179 administration on day 18 in later cohorts. Blood samples were stabilized with sodium fluoride and formic acid immediately after collection to arrest the additional conversion of the prodrug OKI-179 to OKI-006. Plasma was further stabilized using ascorbic acid prior to low-temperature storage.\nPlasma concentrations of OKI-179 and OKI-006 were analyzed using validated liquid chromatography-mass spectrometry (LC-MS/MS) (Quintara Discovery Inc., Hayward, CA, USA). OKI-006 contains a free thiol moiety that can reversibly react with endogenous molecules in the blood and tissue, resulting in “bound” OKI-006. The unreacted OKI-006 is considered “free”. As bound OKI-006 can reversibly convert to free OKI-006 in vivo, both the free and “total” (free plus bound) concentrations of OKI-006 are considered pharmacologically relevant and were therefore quantified as part of this study. Bioanalytically, the total OKI-006 was measured by chemically converting all bound OKI-006 to free OKI-006 prior to analysis using the free OKI-006 bioanalytical method.\nThe AUClast was calculated from time zero to the time of the last quantifiable concentration for OKI-179, free OKI-006, and total OKI-006."}, "advanced solid tumors": {"tested_on": "advanced solid tumors", "experiment": "antitumor activity by RECIST 1.1", "format": "in vivo, human", "text": "Patients were continuously evaluated for adverse events throughout the study using the Common Terminology Criteria of Adverse Events (CTCAE v. 5). The patients underwent a clinical history and physical examination, an ECOG PS, a complete blood count (CBCs), chemistry, coagulation studies, urinalysis, a serum pregnancy test (as applicable), a triplicate ECG, an ophthalmology examination, and baseline tumor assessment at screening. During cycle 1, weekly history and physical examination, CBC, chemistry, coagulation parameters, urinalysis, and triplicate ECGs were performed; in subsequent cycles, weekly labs were limited to a CBC. Repeat ophthalmology examinations were performed at cycle 3, day 1, and at the end of treatment. Repeat tumor assessment was performed every 2 cycles (6 weeks) in accordance with RECIST 1.1. Descriptive statistics were used for baseline characteristics, safety assessments, pharmacokinetic variables, exploratory assessments, and efficacy analysis, including the duration of response and time to progression. Tables were used to summarize the data across the cohort of patients and various dosing groups. Geometric means were used to calculate plasma concentration-time profiles. Fold changes from baseline were used to calculate acetylation."}, "[3]": {"tested_on": "metastatic NRAS-mutated melanoma", "parameters": "method as in earlier work", "conditions": "combination with binimetinib, phase 2 data, previously treated with immunotherapy; cited from earlier work"}, "[4]": {"conditions": "300-mg 5:2, Cycle 1 Day 15, geometric mean"}},
  "note": "“And” between values parts separate entries of the source, which are not always exact repeats. Equal entries are not always repeated. Where two headings read alike, the source gives them in different places.",
  "data": [
    {"smiles": "CC(C)[C@H](N)C(=O)SCC/C=C/[C@@H]1CC(=O)NCc2nc(cs2)C(=O)NC(C)(C)C(=O)N[C@@H](C(C)C)C(=O)O1", "note": "[OKI-179, Bocodepsin]", "values": [
      {"measurement": "increase in histone acetylation", "setting": "[1]; 300 mg doses, 2 h after dosing, days 1 and 15, T cells", "result": 6, "unit": "fold"},
      {"measurement": "increase in H3K27 acetylation in CD4 T cells", "setting": "[1]; doses >200 mg", "result": "greater than 6 fold"},
      {"measurement": "increase in H3K27 acetylation in circulating T cells", "setting": "[1]; doses of 200 mg or greater", "result": "> 6", "unit": "fold"},
      {"measurement": "AUC(0-t)", "setting": "[2]; 300 mg 5:2 cohort, mean single-dose", "result": 253, "unit": "ng·h/mL"},
      {"measurement": "Cmax", "setting": "[2]; 300-mg 5:2, Cycle 1 Day 1, geometric mean, N=6", "result": 142, "unit": "ng/mL"},
      {"measurement": "AUC(0-t)", "setting": "[2]; 300-mg 5:2, Cycle 1 Day 1, geometric mean", "result": 253, "unit": "ng·h/mL"},
      {"measurement": "Tmax", "setting": "[2]; 300-mg 5:2, Cycle 1 Day 1, median", "result": 0.875, "unit": "h"},
      {"measurement": "half-life", "setting": "[2]; 300-mg 5:2, Cycle 1 Day 1, median, read-out: t1/2 of OKI-179 (converted)", "result": 1.75, "unit": "h"},
      {"measurement": "AUC(0-t)", "setting": "[2]; [4]", "result": 374, "unit": "ng·h/mL"},
      {"measurement": "Cmax", "setting": "[2]; [4]", "result": 215, "unit": "ng/mL"},
      {"measurement": "Tmax", "setting": "[2]; 300-mg 5:2, Cycle 1 Day 15, median", "result": 0.934, "unit": "h"},
      {"measurement": "half-life", "setting": "[2]; 300-mg 5:2, Cycle 1 Day 15, median, read-out: t1/2 of OKI-179 (converted)", "result": 1.74, "unit": "h"},
      {"measurement": "half-life", "setting": "[2]; day 15, 300 mg 5:2, read-out: terminal half-life (t1/2) of OKI-179 (converted)", "result": "~1.7", "unit": "h"},
      {"measurement": "partial or complete response", "setting": "advanced solid tumors; RECIST 1.1", "result": "No partial or complete response"},
      {"measurement": "stable disease as the best response", "setting": "advanced solid tumors; heavily pretreated patient population", "result": 39, "unit": "%"},
      {"measurement": "patients with stable disease for > 5 months", "setting": "advanced solid tumors; in vivo", "result": "Six"},
      {"measurement": "time in the study with stable disease", "setting": "advanced solid tumors; two patients with platinum-resistant serous ovarian cancer, one value each", "result": "7.5 months and 14.7 months"},
      {"measurement": "overall response rate (ORR)", "setting": "[3]", "result": 38, "unit": "%"}
    ]}
  ]
}
